Experimental data: the NIST ThermoML archive (doi:10.1016/j.tca.2013.05.023)
Numbers after ± are expanded uncertainties.

How the values were obtained:
[1] = molar heat capacity at constant pressure; xn = mol fraction of the nth substance listed; settings: 101 kPa, Liquid, Small sample (50 mg) DSC, x1 = 0.3333
[2] = xn = mol fraction of the nth substance listed; settings: 101 kPa, Liquid, Alternating current cell with electrodes, x1 = 0.3333

Row | Compound | molar heat capacity at constant pressure ([1]; 303.15 K) [J/K/mol] | molar heat capacity at constant pressure ([1]; 308.15 K) [J/K/mol] | molar heat capacity at constant pressure ([1]; 313.15 K) [J/K/mol] | molar heat capacity at constant pressure ([1]; 318.15 K) [J/K/mol] | molar heat capacity at constant pressure ([1]; 323.15 K) [J/K/mol] | molar heat capacity at constant pressure ([1]; 328.15 K) [J/K/mol] | molar heat capacity at constant pressure ([1]; 333.15 K) [J/K/mol] | molar heat capacity at constant pressure ([1]; 338.15 K) [J/K/mol] | molar heat capacity at constant pressure ([1]; 343.15 K) [J/K/mol] | molar heat capacity at constant pressure ([1]; 348.15 K) [J/K/mol] | molar heat capacity at constant pressure ([1]; 353.15 K) [J/K/mol] | electrical conductivity ([2]; 298.15 K) [S/m] | electrical conductivity ([2]; 303.15 K) [S/m] | electrical conductivity ([2]; 308.15 K) [S/m] | electrical conductivity ([2]; 313.15 K) [S/m] | electrical conductivity ([2]; 318.15 K) [S/m] | electrical conductivity ([2]; 323.15 K) [S/m] | electrical conductivity ([2]; 328.15 K) [S/m] | electrical conductivity ([2]; 333.15 K) [S/m] | electrical conductivity ([2]; 338.15 K) [S/m] | other results
1 | CCN(CC)CCO.Cl [2-(diethylamino)ethanol hydrochloride] + OCC(O)CO | 83.46 ± 3.5 | 83.96 ± 3.6 | 84.39 ± 3.6 | 85.16 ± 3.6 | 85.72 ± 3.6 | 86.36 ± 3.7 | 86.96 ± 3.7 | 87.79 ± 3.7 | 88.46 ± 3.8 | 89.09 ± 3.8 | 89.76 ± 3.8 | 0.069 ± 0.001 | 0.098 ± 0.002 | 0.134 ± 0.003 | 0.175 ± 0.004 | 0.228 ± 0.005 | 0.293 ± 0.006 | 0.368 ± 0.007 | 0.456 ± 0.009 | 0.556 ± 0.011 | electrical conductivity ([2]; 343.15 K): 0.667 ± 0.013 S/m
2 | CCN(CC)CCO.Cl [2-(diethylamino)ethanol hydrochloride] + OCCO | 68.03 ± 2.9 | 68.43 ± 2.9 | 68.83 ± 2.9 | 69.33 ± 2.9 | 69.83 ± 3 | 70.36 ± 3 | 71.03 ± 3 | 71.53 ± 3 | 72.09 ± 3.1 | 72.69 ± 3.1 | 73.26 ± 3.1 | 0.47 ± 0.009 | 0.565 ± 0.011 | 0.68 ± 0.014 | 0.81 ± 0.016 | 0.96 ± 0.019 | 1.12 ± 0.02 | 1.29 ± 0.03 | 1.48 ± 0.03 | 1.68 ± 0.03 | electrical conductivity ([2]; 343.15 K): 1.88 ± 0.04 S/m
